One series concerns the target T1, TRPV1 receptors (Mus musculus, UniProt Q704Y3).
T1 construct: from tissue; host or cells: live mice, hind leg (in vivo)
As to the kind of experiment: Pain induced by intraplantar administration of capsaicin to mice. Type of series: in vivo. Conditions: 10 mg/kg orally 120 minutes before intraplantar capsaicin, n=10, timed over 2 minutes.

The target of the next series is T2, TRPV1 receptor (Rattus norvegicus, UniProt O35433).
T2 construct: DRG neurones naturally express the TRPV1 receptor; endogenous in cells; host or cells: primary culture of newborn rat dorsal root ganglion neurones
T2 sequence (O35433 whole entry): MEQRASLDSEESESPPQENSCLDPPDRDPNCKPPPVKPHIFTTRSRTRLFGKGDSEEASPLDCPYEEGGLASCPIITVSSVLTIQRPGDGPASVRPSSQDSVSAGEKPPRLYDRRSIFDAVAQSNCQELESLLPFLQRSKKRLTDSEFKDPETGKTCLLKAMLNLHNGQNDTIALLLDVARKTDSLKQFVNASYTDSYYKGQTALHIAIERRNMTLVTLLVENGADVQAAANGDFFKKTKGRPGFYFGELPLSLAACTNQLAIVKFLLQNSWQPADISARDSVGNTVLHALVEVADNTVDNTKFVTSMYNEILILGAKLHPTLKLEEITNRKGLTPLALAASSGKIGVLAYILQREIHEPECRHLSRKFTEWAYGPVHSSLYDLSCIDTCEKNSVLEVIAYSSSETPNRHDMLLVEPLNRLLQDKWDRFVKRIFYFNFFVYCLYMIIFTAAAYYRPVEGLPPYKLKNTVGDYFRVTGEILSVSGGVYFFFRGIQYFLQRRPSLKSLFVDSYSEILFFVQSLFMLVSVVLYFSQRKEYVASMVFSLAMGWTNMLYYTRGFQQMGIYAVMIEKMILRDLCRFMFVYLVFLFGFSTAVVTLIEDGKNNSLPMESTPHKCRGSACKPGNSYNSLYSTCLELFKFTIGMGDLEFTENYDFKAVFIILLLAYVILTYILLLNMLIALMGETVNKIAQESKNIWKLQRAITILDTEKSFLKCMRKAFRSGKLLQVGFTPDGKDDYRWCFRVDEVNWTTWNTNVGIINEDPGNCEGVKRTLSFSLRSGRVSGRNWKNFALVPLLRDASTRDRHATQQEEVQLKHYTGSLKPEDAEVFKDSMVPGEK
The experiment in a line: Inhibition of the current induced with capsaicin on rat DRGs (whole-cell patch-clamp). Type of series: cell-based. Particulars: inhibition of control capsaicin response, newborn rat DRG neurones. How it is done:
Test of Inhibition of the Current Induced with Capsaicin on Rat DRGs
• Primary culture of rat dorsal root ganglion (DRG) cells:
DRG neurones naturally express the TRPV1 receptor.
The primary cultures of newborn rat DRGs are prepared using 1-day-old rats. Briefly, after dissection, the ganglions are trypsinized and the cells dissociated by mechanical trituration. The cells are resuspended in an Eagle basal culture medium containing 10% foetal calf serum, 25 mM KCl, 2 mM glutamine, 100 μg/ml gentamicin and 50 ng/ml of NGF, and then deposited on glass slides coated with laminin (0.25×10^6 cells per slide), which are then placed in Corning 12-well dishes. The cells are incubated at 37° C. in a humidified atmosphere containing 5% CO2 and 95% air. […]
The measuring chambers (volume 800 μl) containing the cell preparation are placed on the platform of an inverted microscope (Olympus IMT2) equipped with Hoffman optics (Modulation Contrast, New York) and observed at a magnification of 400×. […] The overall currents (membrane potential set at −60 mV) are recorded with an Axopatch 1D amplifier (Axon Instruments, Foster City, Calif.), connected to a PC running the Pclamp8 software (Axon Instrument). The current plots are recorded on paper and simultaneously digitized (sampling frequency 15 to 25 Hz) and acquired on the hard drive of the PC. […]

T1 sequence (Q704Y3 whole entry): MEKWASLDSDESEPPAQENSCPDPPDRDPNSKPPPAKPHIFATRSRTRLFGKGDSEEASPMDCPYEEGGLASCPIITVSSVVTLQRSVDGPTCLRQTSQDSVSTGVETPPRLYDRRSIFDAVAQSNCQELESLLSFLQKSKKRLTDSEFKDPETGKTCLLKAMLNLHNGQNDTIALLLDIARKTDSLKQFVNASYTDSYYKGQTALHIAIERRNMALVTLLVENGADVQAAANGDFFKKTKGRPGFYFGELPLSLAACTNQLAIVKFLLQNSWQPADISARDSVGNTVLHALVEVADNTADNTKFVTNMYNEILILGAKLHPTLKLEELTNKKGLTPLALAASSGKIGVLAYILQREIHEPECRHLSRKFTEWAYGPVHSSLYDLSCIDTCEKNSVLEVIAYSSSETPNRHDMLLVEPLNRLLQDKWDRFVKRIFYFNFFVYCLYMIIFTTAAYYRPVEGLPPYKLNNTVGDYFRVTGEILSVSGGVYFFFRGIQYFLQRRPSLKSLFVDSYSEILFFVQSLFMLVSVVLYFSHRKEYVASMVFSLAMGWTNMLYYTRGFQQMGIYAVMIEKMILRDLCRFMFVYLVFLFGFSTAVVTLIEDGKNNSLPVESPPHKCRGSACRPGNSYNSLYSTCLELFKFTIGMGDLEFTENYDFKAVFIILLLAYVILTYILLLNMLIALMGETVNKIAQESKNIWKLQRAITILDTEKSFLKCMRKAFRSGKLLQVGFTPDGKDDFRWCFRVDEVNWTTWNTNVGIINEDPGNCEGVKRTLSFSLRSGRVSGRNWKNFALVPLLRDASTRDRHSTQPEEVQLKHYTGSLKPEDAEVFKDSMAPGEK
Description for TRPV1 receptors: Pain Induced by Intraplantar Administration of Capsaicin to Mice. The intraplantar injection of capsaicin to mice rapidly produces short-lived nociceptive behaviour, which is reflected by licking, biting and flexing of the administered leg. […] Methodology: (E)-Capsaicin is initially diluted to 3 mg/ml in DMSO, and then diluted again for its final use to 1.5 μg/20 μl in physiological saline. […] The capsaicin is injected into the hind legs of the animal, on the upper face. The test compounds are administered orally 120 minutes before the injection of capsaicin. Two hours after administration of the compounds, the mice are placed in a glass beaker. The nociceptive behaviour of the animals is then assessed immediately by the experimenter, and the duration of the capsaicin-induced behavioural manifestations is timed over a period of 2 minutes (licking and biting, total or partial flexure of the injected leg). For each compound, an inhibition corresponding to the mean of the capsaicin-induced nociceptive responses, in response to a dose of test product (expressed in mg/kg) administered orally to a sample of a given number (n) of mice, is determined.

`O=C(Nc1cnc2sc(CO)nc2c1)c1cc2cc(F)ccc2n1Cc1cccc(F)c1` [Compound 4, N-(2-Hydroxymethylthiazolo[5,4-b]pyrid-6-yl)-5-fluoro-1-[(3-fluorophenyl)methyl]-1H-indole-2-carboxamide]: the “% inhibition of the capsaicin-induced nociceptive responses” value at TRPV1 receptors is on record as 37% (±8%). Further, the inhibition at 0.0001 µM against TRPV1 receptor (0.1 nM compound) came to 65.5%.

`Cc1nc2cc(NC(=O)c3cc4cc(F)ccc4n3Cc3cccc(F)c3)cnc2[nH]1` [Compound 11, N-(2-Methyl-3H-imidazo[4,5-b]pyrid-6-yl)-5-fluoro-1-[(3-fluorophenyl)methyl]-1H-indole-2-carboxamide] gave a melting point of 299 to 300 °C. The compound further showed an inhibition at 0.1 µM on TRPV1 receptor (100 nM compound) of 62%.

The values above are taken from patent US8299114B2, “Bicyclic derivatives of azabicyclic carboxamides, preparation thereof and therapeutic use thereof” (priority 2008, dated 2012).
